Several values for one entry are separate records, joined by “and”; a condition that tells them apart may be missing. Equal values may be shown once.

As a reminder, the melting point is the temperature of the solid-liquid transition.

The target in data set [1] is Rat2 fibroblasts stably transformed with v-Src/Hu c-Src fusion gene (Homo sapiens, UniProt P12931, cells depend on it, form not given). Nature of the data set: Anchorage Independent Src-transformed Fibroblast Proliferation Assay. It counts as cell-based, Rat. The conditions noted are these: suspension growth, MTS reagent on Day 5; read-out: anch-indep src-tx fib IC50. The procedure:
Anchorage Independent Src-transformed Fibroblast Proliferation Assay
Rat2 fibroblasts stably transformed with a plasmid containing a CMV promotor controlled v-Src/Hu c-Src fusion gene in which the catalytic domain of human c-Src was inserted in place of the v-Src catalytic domain in the v-Src gene are used for the measurement of src dependent suspension growth. […] Multiple entries for a given compound indicate that it was tested multiple times.
(In general: Tetrazolium dyes change colour on reduction, which living cells bring about.)

Chain of Rat2 fibroblasts stably transformed with v-Src/Hu c-Src fusion gene (P12931 whole entry, change not shown, the tested form may be a part): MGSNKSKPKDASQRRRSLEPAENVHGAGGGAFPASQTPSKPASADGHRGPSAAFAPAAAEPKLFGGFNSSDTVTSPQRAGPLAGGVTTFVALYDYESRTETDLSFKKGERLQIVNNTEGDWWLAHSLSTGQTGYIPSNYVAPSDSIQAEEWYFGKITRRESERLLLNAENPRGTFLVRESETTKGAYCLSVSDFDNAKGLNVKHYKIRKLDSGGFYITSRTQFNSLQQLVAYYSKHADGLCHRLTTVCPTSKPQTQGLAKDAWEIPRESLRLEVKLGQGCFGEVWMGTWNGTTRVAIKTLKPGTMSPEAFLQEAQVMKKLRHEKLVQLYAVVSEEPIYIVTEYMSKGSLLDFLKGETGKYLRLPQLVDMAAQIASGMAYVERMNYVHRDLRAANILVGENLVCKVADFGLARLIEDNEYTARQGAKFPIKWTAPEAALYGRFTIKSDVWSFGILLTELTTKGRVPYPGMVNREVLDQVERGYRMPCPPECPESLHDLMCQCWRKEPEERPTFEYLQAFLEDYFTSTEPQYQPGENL

`N#Cc1cnc2cc(C=CCCCN3CCOCC3)ccc2c1Nc1ccc(Cl)cc1Cl` (mixture of isomers) [Example 12, 4-(2,4-Dichloroanilino)-7-[(E/Z)-5-(4-morpholinyl)-1-pentenyl]-3-quinoline-carbonitrile] displayed a melting point of 70 to 72 °C. For the same compound, the GI50 in data set [1] is above 10000 nM.
Consider `N#Cc1cnc2cc(C=CCCCCN3CCOCC3)ccc2c1Nc1ccc(Cl)cc1Cl` (mixture of isomers) [Example 16, 4-(2,4-Dichloroanilino)-7-[(E/Z)-6-(4-morpholinyl)-1-hexenyl]-3-quinolinecarbonitrile], for which the melting point was 128 to 130 °C. For the same compound, in data set [1], the GI50 was above 10000 nM.
As for `COc1cc(Nc2c(C#N)cnc3cc(-c4ccc(C5OCCO5)o4)ccc23)c(Cl)cc1Cl` [Example 5, 4-(2,4-dichloro-5-methoxyanilino)-7-[5-(1,3-dioxolan-2-yl)-2-furyl]-3-quinolinecarbonitrile], the melting point is 224 to 229 °C. Besides, the GI50 in data set [1] was determined as 200 nM.
In the case of `COc1cc(Nc2c(C#N)cnc3cc(-c4ccc(C=O)o4)ccc23)c(Cl)cc1Cl` [Example 6, 4-(2,4-Dichloro-5-methoxyanilino)-7-(5-formyl-2-furyl)-3-quinolinecarbonitrile], the melting point was above 250 °C. Besides, the GI50 in data set [1] was determined as 1600 nM.
The compound `N#Cc1cnc2cc(-c3ccc(CCN4CCOCC4)s3)ccc2c1Nc1ccc(Cl)cc1Cl` [Example 9, 4-(2,4-Dichloroanilino)-7-{5-[2-(4-morpholinyl)ethyl]-2-thienyl}-3-quinoline-carbonitrile] showed a melting point of 168 to 169 °C. The GI50 in data set [1] was 2700 nM.
`CCN1CCN(Cc2cc(-c3ccc4c(Nc5ccc(Cl)cc5Cl)c(C#N)cnc4c3)cs2)CC1` [Example 10, 4-(2,4-Dichloroanilino)-7-{5-[(4-ethyl-1-piperazinyl)methyl]-3-thienyl}-3-quinolinecarbonitrile] returned a melting point of 182 to 184 °C. The GI50 in data set [1] came to 900 nM.
In the case of `N#Cc1cnc2cc(C#CCCCN3CCOCC3)ccc2c1Nc1ccc(Cl)cc1Cl` [Example 11, 4-(2,4-Dichloroanilino)-7-[5-(4-morpholinyl)-1-pentynyl]-3-quinolinecarbonitrile], the melting point fell in the range of 131 to 133 °C. Also, in data set [1], the GI50 is above 10000 nM.
As to `N#Cc1cnc2cc(-c3ccc(CN4CCOCC4)o3)ccc2c1Nc1ccc(Cl)cc1Cl` [Example 13, 4-(2,4-Dichloroanilino)-7-[5-(4-morpholinylmethyl)-2-furyl]-3-quinolinecarbonitrile], the melting point lay within 118 to 120 °C. Besides, the GI50 in data set [1] is 1510 nM and 1590 nM.
Consider `CN(C)CC#Cc1ccc2c(Nc3ccc(Cl)cc3Cl)c(C#N)cnc2c1` [Example 15, 4-(2,4-dichloroanilino)-7-[3-(dimethylamino)-1-propynyl]-3-quinolinecarbonitrile], for which the melting point is 144 to 145 °C. Besides, the GI50 in data set [1] is above 10000 nM.
For the compound `CCN1CCN(Cc2cc(-c3ccc4c(Nc5cc(OC)c(Cl)cc5Cl)c(C#N)cnc4c3)cs2)CC1` [Example 19, 4-(2,4-dichloro-5-methoxyanilino)-7-{5-[(4-ethyl-1-piperazinyl)methyl]-3-thienyl}-3-quinolinecarbonitrile], in data set [1], the GI50 came out at 160 nM.
As for `COc1cc(Nc2c(C#N)cnc3cc(-c4ccc(CN5CCOCC5)s4)ccc23)c(Cl)cc1Cl` [Example 23, 4-(2,4-Dichloro-5-methoxyanilino)-7-[5-(4-morpholinylmethyl)-2-thienyl]-3-quinolinecarbonitrile], in data set [1], the GI50 was 90 nM.
Turning to `COc1cc(Nc2c(C#N)cnc3cc(-c4csc(CN5CCOCC5)c4)ccc23)c(Cl)cc1Cl` [Example 24, 4-(2,4-Dichloro-5-methoxyanilino)-7-[5-(4-morpholinylmethyl)-3-thienyl]-3-quinolinecarbonitrile], in data set [1], the GI50 worked out at 180 nM.
In the case of `COc1cc(Nc2c(C#N)cnc3cc(-c4ccc(CCN5CCOCC5)cc4)ccc23)c(Cl)cc1Cl` [Example 27, 4-(2,4-Dichloro-5-methoxyanilino)-7-{4-[2-(4-morpholinyl)ethyl]phenyl}-3-quinolinecarbonitrile], the GI50 in data set [1] is 1020 nM.
For `COc1cc(Nc2c(C#N)cnc3cc(-c4cccc(CCN5CCOCC5)c4)ccc23)c(Cl)cc1Cl` [Example 28, 4-(2,4-Dichloro-5-methoxyanilino)-7-{3-[2-(4-morpholinyl)ethyl]phenyl}-3-quinolinecarbonitrile], the GI50 in data set [1] came to 4100 nM.
As to `COc1cc(Nc2c(C#N)cnc3cc(-c4ccc(CN5CCOCC5)cc4)ccc23)c(Cl)cc1Cl` [Example 29, 4-(2,4-Dichloro-5-methoxyanilino)-7-[4-(4-morpholinylmethyl)phenyl]-3-quinolinecarbonitrile], the GI50 in data set [1] was 540 nM and 500 nM.
`CCN1CCN(CCc2ccc(-c3ccc4c(Nc5cc(OC)c(Cl)cc5Cl)c(C#N)cnc4c3)cc2)CC1` [Example 32, 4-(2,4-Dichloro-5-methoxyanilino)-7-{4-[2-(4-ethyl-1-piperazinyl)ethyl]phenyl}-3-quinolinecarbonitrile]: the GI50 in data set [1] was 2000 nM and 1900 nM.
As for `COc1cc(Nc2c(C#N)cnc3cc(-c4ccc(CN5CCOCC5)cc4)c(OC)cc23)c(Cl)cc1Cl` [Example 37, 4-(2,4-Dichloro-5-methoxyanilino)-6-methoxy-7-[4-(4-morpholinylmethyl)phenyl]-3-quinolinecarbonitrile], the GI50 in data set [1] is 1590 nM and 1490 nM.
Still for that read-out and setting: the result for `COc1cc(Nc2c(C#N)cnc3cc(-c4cccc(CCN5CCOCC5)c4)c(OC)cc23)c(Cl)cc1Cl` [Example 38, 4-(2,4-Dichloro-5-methoxyanilino)-6-methoxy-7-{3-[2-(4-morpholinyl)ethyl]phenyl}-3-quinolinecarbonitrile] reads 12700 nM and 10600 nM.
As for `COc1cc(Nc2c(C#N)cnc3cc(-c4cscc4CN4CCOCC4)ccc23)c(Cl)cc1Cl` [Example 65, 4-(2,4-Dichloro-5-methoxyanilino)-7-[4-(4-morpholinylmethyl)-3-thienyl]-3-quinolinecarbonitrile], the GI50 in data set [1] was above 10000 nM.
Take `COc1cc(Nc2c(C#N)cnc3cc(-c4ccsc4CN4CCOCC4)ccc23)c(Cl)cc1Cl` [Example 66, 4-(2,4-Dichloro-5-methoxyanilino)-7-[2-(4-morpholinylmethyl)-3-thienyl]-3-quinolinecarbonitrile]: the GI50 in data set [1] is above 10000 nM.
`COc1cc(Nc2c(C#N)cnc3cc(-c4cc(CN5CCOCC5)cs4)ccc23)c(Cl)cc1Cl` [Example 68, 4-(2,4-Dichloro-5-methoxyanilino)-7-[4-(4-morpholinylmethyl)-2-thienyl]-3-quinolinecarbonitrile]: the GI50 in data set [1] was determined as 120 nM.
For the compound `COc1cc(Nc2c(C#N)cnc3cc(-c4ccc(CNCCS(=O)(=O)c5ccccc5)n4C)ccc23)c(Cl)cc1Cl` [Example 72, 4-(2,4-dichloro-5-methoxyanilino)-7-[1-methyl-5-({[2-(phenylsulfonyl)ethyl]amino}methyl)-1H-pyrrol-2-yl]-3-quinolinecarbonitrile], the GI50 in data set [1] is above 10000 nM.
Still for that read-out and setting: the same measure for `COc1cc(Nc2c(C#N)cnc3cc(-c4ccc(CN5CCCCC5)s4)ccc23)c(Cl)cc1Cl` [Example 78, 4-(2,4-Dichloro-5-methoxyanilino)-7-[5-(1-piperidinylmethyl)-2-thienyl]-3-quinolinecarbonitrile]: 140 nM; for `COc1cc(Nc2c(C#N)cnc3cc(C#Cc4ccccn4)ccc23)c(Cl)cc1Cl` [Example 91, 4-(2,4-Dichloro-5-methoxyanilino)-7-[2-(2-pyridinyl)ethynyl]-3-quinolinecarbonitrile]: above 10000 nM; for `COc1cc(Nc2c(C#N)cnc3cc(-c4ccc[nH]4)ccc23)c(Cl)cc1Cl` [Example 104, 4-(2,4-Dichloro-5-methoxyanilino)-7-(1H-pyrrol-2-yl)-3-quinolinecarbonitrile]: 560 nM.
For the compound `COc1cc(Nc2c(C#N)cnc3cc(-c4cccc(CN5CCN(C)CC5)c4)ccc23)c(Cl)cc1Cl` [Example 113, 4-(2,4-dichloro-5-methoxyanilino)-7-{3-[(4-methyl-1-piperazinyl)methyl]phenyl}-3-quinolinecarbonitrile], the GI50 in data set [1] was found to be 1400 nM.
Regarding `COc1cc(Nc2c(C#N)cnc3cc(-c4ccccc4C=O)ccc23)c(Cl)cc1Cl` [Example 114, 4-(2,4-Dichloro-5-methoxyanilino)-7-(2-formylphenyl)-3-quinolinecarbonittile], the GI50 in data set [1] was above 10000 nM.
For the compound `COc1cc(Nc2c(C#N)cnc3cc(-c4ccccc4CN4CCOCC4)ccc23)c(Cl)cc1Cl` [Example 115, 4-(2,4-Dichloro-5-methoxyanilino)-7-[2-(4-morpholinylmethyl)phenyl]-3-quinolinecarbonitrile], the GI50 in data set [1] was above 10000 nM.
As for `COc1cc(Nc2c(C#N)cnc3cc(/C=C/c4ccccc4)ccc23)c(Cl)cc1Cl` [Example 139, 4-(2,4-Dichloro-5-methoxyanilino)-7-[(E)-2-phenylethenyl]-3-quinolinecarbonitrile], the GI50 in data set [1] is above 10000 nM.
On to `COc1cc(Nc2c(C#N)cnc3cc(C#Cc4ccccc4)ccc23)c(Cl)cc1Cl` [Example 140, 4-(2,4-Dichloro-5-methoxyanilino)-7-(2-phenylethynyl)-3-quinolinecarbonitrile], for which the GI50 in data set [1] was above 10000 nM.
`COc1cc(Nc2c(C#N)cnc3cc(-c4csc(CN5CCC(O)CC5)c4)ccc23)c(Cl)cc1Cl` [Example 192, 4-(2,4-Dichloro-5-methoxyanilino)-7-{5-[(4-hydroxy-1-piperidinyl)methyl]-3-thienyl}-3-quinolinecarbonitrile]: the GI50 in data set [1] was 170 nM.
Regarding `COc1cc(Nc2c(C#N)cnc3cc(-c4cnc(CN5CCN(C)CC5)n4C)c(OC)cc23)c(Cl)cc1Cl` [Example 233, 4-(2,4-Dichloro-5-methoxyanilino)-6-methoxy-7-{1-methyl-2-[(4-methyl-1-piperazinyl)methyl]-1H-imidazol-5-yl}-3-quinolinecarbonitrile], the melting point fell in the range of 234 to 236 °C.

Values taken from patent US20020026052A1, “3-cyanoquinolines, 3-cyano-1,6-naphthyridines, and 3-cyano-1,7-naphthyridines as protein kinase inhibitors” (American Home Products Corporation, priority 2000, published 2002).
